According to ChEMBL document CHEMBL1154755, “Discovery of 6alpha-ethyl-23(S)-methylcholic acid (S-EMCA, INT-777) as a potent and selective agonist for the TGR5 receptor, a novel target for diabesity” (J Med Chem, 2009):

How the values were obtained:
[1] = Metabolic stability in bile fistula rat model assessed as intact drug level recovered in bile at 1 umol/min/kg administered intraduodenally over 1 hr; type: ADME; details: in vivo, other
[2] = Metabolic stability in bile fistula rat model assessed as intact drug level recovered in bile at 1 umol/min/kg, iv over 1 hr; type: ADME, organism-based; details: in vivo
[3] = Metabolic stability in human stool broth culture assessed as unmodified drug level after 12 hrs; type: ADME; details: read-out: Stability

For CC[C@H]1[C@@H](O)[C@@H]2[C@H](C[C@H](O)[C@]3(C)[C@@H]([C@H](C)C[C@@H](C)C(=O)O)CC[C@@H]23)[C@@]2(C)CC[C@@H](O)C[C@@H]12, the Stability [1] was 68 %Idose and the Stability [2] was 65 %Idose.
For CC[C@H]1[C@@H](O)[C@@H]2[C@H](C[C@H](O)[C@]3(C)[C@@H]([C@H](C)C[C@H](C)C(=O)O)CC[C@@H]23)[C@@]2(C)CC[C@@H](O)C[C@@H]12, the Stability [1] was 94 %Idose, the Stability [2] was 93 %Idose and the remaining at 12 h [3] was greater than 95%.
C[C@H](CCC(=O)O)[C@H]1CC[C@H]2[C@@H]3[C@H](O)C[C@@H]4C[C@H](O)CC[C@]4(C)[C@H]3CC[C@]12C [CHENODIOL] gave a Stability [1] of 3 %Idose and a Stability [2] of 4 %Idose.
In the case of C[C@H](CCC(=O)O)[C@H]1CC[C@H]2[C@@H]3[C@H](O)C[C@@H]4C[C@H](O)CC[C@]4(C)[C@H]3C[C@H](O)[C@]12C [CHOLIC ACID], the Stability [1] is reported as 12 %Idose and the Stability [2] is reported as 8 %Idose.
